Among the test systems are MALME-3M melanoma; OVCAR-4 ovarian; UACC-257 melanoma; EKVX NSCLC; U251 CNS; MCF7 breast; UO-31 renal; SW-620 colon; NCI-H226 lung; LOX IMVI melanoma.
Test in all cases: NCI tumour cell line growth inhibition, 48 h

Each structure is given as a SMILES string.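 Dose response: 5 concentrations. Exposure: 48 h. Format: 96-well plates. Endpoint: linear interpolation; highest concentration if not reached. Abbreviation: GI50, concentration required for 50% inhibition of growth. The concentration for full growth arrest is given as TGI.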

Consider `Cc1c(-c2ccc(N3CCc4cccc(C(=O)Nc5nc6ccccc6s5)c4C3)nc2C(=O)O)cnn1CC12CC3CC(CC(C3)C1)C2`, for which the GI50 in the assay on MALME-3M melanoma was 14.3 µM; in the assay on OVCAR-4 ovarian, 6.72 µM; with UACC-257 melanoma, 10.5 µM; in the assay on EKVX NSCLC, 8.62 µM; with U251 CNS it was 7.04 µM; with MCF7 breast it was 10.8 µM. The GI50 in the assay with UO-31 renal is 2.6 µM; in the assay on SW-620 colon, 8.54 µM; in the assay on NCI-H226 lung it was 13.7 µM; in the assay on LOX IMVI melanoma, 5.92 µM. In addition, the TGI came out at 33.7 µM in the assay with MALME-3M melanoma; 33.2 µM with OVCAR-4 ovarian; 30.2 µM in the assay on UACC-257 melanoma; 28.3 µM in the assay on EKVX NSCLC; 30.2 µM with U251 CNS; 29.4 µM with MCF7 breast. Besides, the TGI in the assay on UO-31 renal worked out at 9.36 µM; in the assay with SW-620 colon, 37.1 µM; with NCI-H226 lung, 50.6 µM; with LOX IMVI melanoma, 23.4 µM.

As to `COc1cc2c(cc1OCCCN1CCN(CCCn3c4ccccc4c4ccccc43)CC1)N=C[C@@H]1CCCN1C2=O`, the GI50 in the assay on MALME-3M melanoma was 0.102 µM; with OVCAR-4 ovarian it was 0.0374 µM; in the assay with UACC-257 melanoma it was 0.209 µM; in the assay with EKVX NSCLC, 0.268 µM; in the assay on U251 CNS, 0.0985 µM; in the assay on MCF7 breast, 0.0285 µM. Further, the GI50 was 0.174 µM with UO-31 renal, 0.0254 µM in the assay on SW-620 colon, 0.323 µM in the assay with NCI-H226 lung and 0.0937 µM in the assay with LOX IMVI melanoma. Besides, the TGI with MALME-3M melanoma was 0.432 µM; with OVCAR-4 ovarian, 0.357 µM; in the assay on UACC-257 melanoma, 0.461 µM; in the assay with EKVX NSCLC it was 0.988 µM; in the assay with U251 CNS, 1.2 µM; in the assay on MCF7 breast it was 0.461 µM. Further, the TGI in the assay with UO-31 renal came out at 0.491 µM; in the assay on SW-620 colon it was 0.141 µM; in the assay with NCI-H226 lung, 1.48 µM; in the assay with LOX IMVI melanoma it was 0.426 µM.

In the case of `Cn1c(=O)c(-c2c(Cl)cccc2Cl)cc2cnc(Nc3ccc(N4CCOCC4)cc3)nc21`, the GI50 with MALME-3M melanoma is 0.0196 µM; in the assay on OVCAR-4 ovarian it was 0.404 µM; in the assay with EKVX NSCLC it was 0.798 µM; in the assay with U251 CNS, 0.17 µM; in the assay on MCF7 breast, 1.49 µM; in the assay on UO-31 renal, 2.29 µM. Further, the GI50 in the assay on SW-620 colon was 0.202 µM; with NCI-H226 lung, 0.0748 µM; in the assay with LOX IMVI melanoma, 0.178 µM. Also, the TGI in the assay on MALME-3M melanoma is 0.491 µM; in the assay with OVCAR-4 ovarian it was greater than 100 µM; with UACC-257 melanoma it was greater than 22.4 µM; with EKVX NSCLC, greater than 30.9 µM; with U251 CNS it was 6.13 µM; with MCF7 breast, greater than 100 µM. The TGI in the assay on UO-31 renal is 6.66 µM; in the assay on SW-620 colon, greater than 100 µM; with NCI-H226 lung, greater than 100 µM; in the assay with LOX IMVI melanoma, 1.31 µM.

As for `O=C(c1ccccc1)c1ccc(N2C(=O)C3C4c5ccccc5C(/C=C/C(=O)c5ccccn5)(c5ccccc54)C3C2=O)cc1` (centres undefined), the GI50 was 2.33 µM in the assay with MALME-3M melanoma; 4.3 µM in the assay on OVCAR-4 ovarian; 2.44 µM in the assay on UACC-257 melanoma; 3.02 µM with EKVX NSCLC; 2.08 µM with U251 CNS; 1.77 µM in the assay on MCF7 breast. The GI50 in the assay with UO-31 renal was 1.45 µM; in the assay with SW-620 colon it was 2.82 µM; with NCI-H226 lung, 2.06 µM; with LOX IMVI melanoma it was 1.56 µM. For the same compound, the TGI is 6.48 µM in the assay with MALME-3M melanoma; greater than 100 µM in the assay on OVCAR-4 ovarian; 46.6 µM with UACC-257 melanoma; 39 µM in the assay with EKVX NSCLC; 4.62 µM in the assay on U251 CNS; greater than 100 µM in the assay on MCF7 breast. The TGI in the assay with UO-31 renal is 2.92 µM; in the assay with SW-620 colon it was greater than 100 µM; with NCI-H226 lung it was 4.48 µM; in the assay with LOX IMVI melanoma it was 3.51 µM.

Turning to `CCC(=C(c1ccc(OCCN(CC)CC)cc1)c1ccc(OCCN(CC)CC)cc1)c1ccc(Cl)cc1`, the GI50 was 0.567 µM in the assay with MALME-3M melanoma; 0.714 µM in the assay on OVCAR-4 ovarian; 0.62 µM in the assay with UACC-257 melanoma; 0.641 µM in the assay with EKVX NSCLC; 0.57 µM in the assay on U251 CNS; 0.347 µM in the assay with MCF7 breast. Also, the GI50 in the assay with UO-31 renal is 0.484 µM; with SW-620 colon, 0.572 µM; in the assay on NCI-H226 lung, 0.679 µM; with LOX IMVI melanoma, 0.55 µM. In addition, the TGI was determined as 1.07 µM with MALME-3M melanoma; 1.66 µM in the assay on OVCAR-4 ovarian; 1.25 µM in the assay with UACC-257 melanoma; 1.46 µM with EKVX NSCLC; 1.14 µM in the assay on U251 CNS; 0.861 µM in the assay with MCF7 breast. For the same compound, the TGI with UO-31 renal worked out at 0.94 µM; in the assay on SW-620 colon, 1.12 µM; in the assay with NCI-H226 lung, 1.48 µM; with LOX IMVI melanoma, 1.03 µM.

In the case of `O=C1OC(c2ccccc2)=N/C1=C\c1ccc(N(CCCl)CCCl)cc1`, the TGI in the assay on MALME-3M melanoma, in the assay on OVCAR-4 ovarian, in the assay with UACC-257 melanoma, with EKVX NSCLC, in the assay on U251 CNS and with MCF7 breast was greater than 100 µM throughout. Moreover, the TGI in the assay on UO-31 renal, in the assay with SW-620 colon, in the assay on NCI-H226 lung and with LOX IMVI melanoma was greater than 100 µM throughout.

(Values after PubChem BioAssay (NCI).)
